Structures can show the parent of a compound that is named as a salt.
Key:
DPP-IV = target: T1, DPP-IV (Homo sapiens, UniProt P27487); assay: DPP-IV assay with extract of Caco-2 cells as DPP IV source, AFC substrate, fluorescence; format: biochemical; conditions: extract of human colon carcinoma cell line Caco-2 as DPP IV source; substrate 100 μM; 60 minutes at ambient temperature; read-out: DPP IV inhibition IC50
T1 construct: an extract of human colon carcinoma cell line Caco-2 is used as the DPP IV source; endogenous in cells; host or cells: Caco-2 (human colon carcinoma), differentiated to induce DPP-IV expression; solubilised in Nonidet-P40 buffer
Method: The differentiation of the cells in order to induce the DPP-IV expression was carried out as described by Reiher et al. in an article entitled “Increased expression of intestinal cell line Caco-2”, which appeared in Proc. Natl. Acad. Sci. Vol. 90, pages 5757-5761 (1993). The cell extract was obtained from cells solubilised in a buffer (10 mM Tris HCl, 0.15 M NaCl, 0.04 t.i.u. aprotinin, 0.5% Nonidet-P40, pH 8.0) by centrifuging at 35,000 g for 30 minutes at 4° C. (to remove cell debris).
The DPP-IV assay was carried out as follows:
50 μl substrate solution (AFC; AFC is amido-4-trifluoromethylcoumarin), final concentration 100 μM, were placed in black microtitre plates. 20 μl of assay buffer (final concentrations 50 mM Tris HCl pH 7.8, 50 mM NaCl, 1% DMSO) was pipetted in. The reaction was started by adding 30 μl of solubilised Caco-2 protein (final concentration 0.14 μg of protein per well). The test substances to be investigated were typically added prediluted in 20 μl, and the volume of assay buffer was then reduced accordingly. The reaction was carried out at ambient temperature, incubating for 60 minutes. Then the fluorescence was measured in a Victor 1420 Multilabel Counter, the excitation wavelength being 405 nm and the emission wavelength being 535 nm. Blank readings (corresponding to 0% activity) were obtained in mixtures without any Caco-2 protein (volume replaced by assay buffer), control values (corresponding to 100% activity) were obtained in mixtures with no substance added. […]

rats = assay: Tolerability after oral administration to rats (behaviour); format: in vivo, rat; conditions: 10 mg/kg by oral route

T1 sequence (P27487 whole entry): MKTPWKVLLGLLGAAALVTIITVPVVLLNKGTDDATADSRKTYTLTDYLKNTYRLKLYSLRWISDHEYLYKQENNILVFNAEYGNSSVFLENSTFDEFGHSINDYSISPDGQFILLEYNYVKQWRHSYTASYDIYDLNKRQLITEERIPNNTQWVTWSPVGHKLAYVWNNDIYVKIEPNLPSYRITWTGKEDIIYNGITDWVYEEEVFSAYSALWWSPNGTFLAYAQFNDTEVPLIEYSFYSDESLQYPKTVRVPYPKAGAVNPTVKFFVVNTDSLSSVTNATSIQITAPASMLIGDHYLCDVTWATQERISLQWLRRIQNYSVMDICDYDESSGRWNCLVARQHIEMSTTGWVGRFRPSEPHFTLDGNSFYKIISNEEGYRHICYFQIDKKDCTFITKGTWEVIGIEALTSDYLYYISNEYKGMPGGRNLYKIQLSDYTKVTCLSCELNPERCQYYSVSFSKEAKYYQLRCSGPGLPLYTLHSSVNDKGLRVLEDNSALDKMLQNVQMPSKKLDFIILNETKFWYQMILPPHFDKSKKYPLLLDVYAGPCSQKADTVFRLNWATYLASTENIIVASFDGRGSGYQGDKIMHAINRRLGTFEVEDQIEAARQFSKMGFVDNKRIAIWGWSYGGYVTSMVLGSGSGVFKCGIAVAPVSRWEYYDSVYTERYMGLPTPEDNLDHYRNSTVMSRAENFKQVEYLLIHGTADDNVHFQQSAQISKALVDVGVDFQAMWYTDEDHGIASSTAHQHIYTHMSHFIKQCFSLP

Structure (SMILES)	IC50 (DPP-IV)	melting point	changes in the animals' behaviour (rats)
CC#CCn1c(N2CCCC(N)C2)nc2c1c(=O)n(CC1=NC(C)(C(=O)OC)Cc3ccccc31)c(=O)n2C (centres unmarked) [1(1), 1-[(3-methoxycarbonyl-3-methyl-3,4-dihydro-isoquinolin-1-yl]methyl]-3-methyl-7-(2-butyn-1-yl)-8-(3-amino-piperidin-1-yl)-xanthine]	32 nM	–	–
CC#CCn1c(N2CCCC(N)C2)nc2c1c(=O)n(CC1=NCCOc3ccccc31)c(=O)n2C (centres unmarked) [Example 2, 1-[(2,3-dihydro-benzo[f][1,4]oxazepin-5-yl)methyl]-3-methyl-7-(2-butyn-1-yl)-8-(3-amino-piperidin-1-yl)-xanthine]	6 nM	–	–
CC#CCn1c(N2CCCC(N)C2)nc2c1c(=O)n(Cc1nc3ccccc3c3ccccc13)c(=O)n2C (centres unmarked) [1(3), 1-[(phenanthridin-6-yl)methyl]-3-methyl-7-(2-butyn-1-yl)-8-(3-amino-piperidin-1-yl)-xanthine-dihydrochloride]	5 nM	–	–
CC#CCn1c(N2CCCC(N)C2)nc2c1c(=O)n(Cc1nc3ccccc3c3ccnn13)c(=O)n2C (centres unmarked) [1(26), 1-[(pyrazolo[1,5-c]quinazolin-5-yl)methyl]-3-methyl-7-(2-butyn-1-yl)-8-(3-amino-piperidin-1-yl)-xanthine]	7 nM	–	–
CC#CCn1c(N2CCCC(N)C2)nc2c1c(=O)n(CC1=Nc3ccccc3N(C)c3ccccc31)c(=O)n2C (centres unmarked) [1(12), 1-[(5-methyl-5H-dibenzo[b,e][1,4]diazepin-11-yl)methyl]-3-methyl-7-(2-butyn-1-yl)-8-(3-amino-piperidin-1-yl)-xanthine]	14 nM	–	–
CC#CCn1c(N2CCC[C@@H](N)C2)nc2c1c(=O)n(CC1=Nc3cccc4cccc(c34)N1)c(=O)n2C [1(29), 1-[(1H-perimidin-2-yl)methyl]-3-methyl-7-(2-butyn-1-yl)-8-((R)-3-amino-piperidin-1-yl)-xanthine]	3 nM	–	–
CC#CCn1c(N2CCCC(N)C2)nc2c1c(=O)n(Cc1nc3ccccc3c3ncccc13)c(=O)n2C (centres unmarked) [1(25), 1-[(benzo[h][1,6]naphthyridin-5-yl)methyl]-3-methyl-7-(2-butyn-1-yl)-8-(3-amino-piperidin-1-yl)-xanthine]	7 nM	–	–
CC#CCn1c(N2CCC[C@@H](N)C2)nc2c1c(=O)n(Cc1nc3ccccc3c3ccccc13)c(=O)n2C1CC1 [1(20), 1-[(phenanthridin-6-yl)methyl]-3-cyclopropyl-7-(2-butyn-1-yl)-8-((R)-3-amino-piperidin-1-yl)-xanthine]	10 nM	–	–
CC#CCn1c(N2CCCC(N)C2)nc2c1c(=O)n(CC1=Nc3ccccc3CN1)c(=O)n2C (centres unmarked) [1(10), 1-[(3,4-dihydro-quinazolin-2-yl)methyl]-3-methyl-7-(2-butyn-1-yl)-8-(3-amino-piperidin-1-yl)-xanthine]	8 nM	–	–
CC#CCn1c(N2CCCC(N)C2)nc2c1c(=O)n(Cc1cn3c(ccc4ccccc43)n1)c(=O)n2C (centres unmarked) [1(32)]	4 nM	–	–
CC(C)=CCn1c(N2CCCC(N)C2)nc2c1c(=O)n(/C=C1\NC(=O)c3ccccc31)c(=O)n2C (centres unmarked) [Example 3, 1-[(3-oxo-2,3-dihydro-isoindol-1-ylidene)methyl]-3-methyl-7-(3-methyl-2-buten-1-yl)-8-(3-amino-piperidin-1-yl)-xanthine]	20 nM	–	–
CC#CCn1c(N2CCCC(N)C2)nc2c1c(=O)n(Cc1nc3c(c4ccccc14)CCCC3)c(=O)n2C (centres unmarked) [1(4), 1-[(1,2,3,4-tetrahydro-phenanthridin-6-yl)methyl]-3-methyl-7-(2-butyn-1-yl)-8-(3-amino-piperidin-1-yl)-xanthine x trifluoroacetic acid]	5 nM	–	–
CC#CCn1c(N2CCCC(N)C2)nc2c1c(=O)n(Cc1ccc3nonc3c1)c(=O)n2C (centres unmarked) [1(15), 1-[(benzo[1,2,5]oxadiazol-5-yl)methyl]-3-methyl-7-(2-butyn-1-yl)-8-(3-amino-piperidin-1-yl)-xanthine]	11 nM	–	–
CC#CCn1c(N2CCC[C@@H](N)C2)nc2c1c(=O)n(Cc1nc3cccnc3c3ccccc13)c(=O)n2C [1(28), 1-[(benzo[c][1,5]naphthyridin-6-yl)methyl]-3-methyl-7-(2-butyn-1-yl)-8-((R)-3-amino-piperidin-1-yl)-xanthine]	2 nM	–	–
CC#CCn1c(N2CCCC(N)C2)nc2c1c(=O)n(CC1=NC(C(F)(F)F)Cc3ccccc31)c(=O)n2C (centres unmarked) [1(7), 1-[(3-trifluoromethyl-3,4-dihydro-isoquinolin-1-yl)methyl]-3-methyl-7-(2-butyn-1-yl)-8-(3-amino-piperidin-1-yl)-xanthine x trifluoroacetic acid]	11 nM	–	–
CC(C)=CCn1c(N2CCCC(N)C2)nc2c1c(=O)n(CC1=CS(=O)(=O)N(C)c3ccccc31)c(=O)n2C (centres unmarked) [Example 1, 1-[(1-methyl-2,2-dioxo-1H-benzo[c][1,2]thiazin-4-yl)methyl]-3-methyl-7-(3-methyl-2-buten-1-yl)-8-(3-amino-piperidin-1-yl)-xanthine]	13 nM	200 to 205 °C	–
C/C=C/Cn1c(N2CCC[C@@H](N)C2)nc2c1c(=O)n(CC1=NCC(=O)Nc3ccccc31)c(=O)n2C [Example 1(2), 1-[(2-oxo-2,3-dihydro-1H-benzo[e][1,4]diazepin-5-yl)methyl]-3-methyl-7-((E)-2-buten-1-yl)-8-((R)-3-amino-piperidin-1-yl)-xanthine]	6 nM	–	no changes in the animals' behaviour could be detected
CC#CCn1c(N2CCC[C@@H](N)C2)nc2c1c(=O)n(Cc1cc3nccnc3c3ccccc13)c(=O)n2C [1(30), 1-[(benzo[f]quinoxalin-6-yl)methyl]-3-methyl-7-(2-butyn-1-yl)-8-((R)-3-amino-piperidin-1-yl)-xanthine]	3 nM	–	–
CC#CCn1c(N2CCC[C@@H](N)C2)nc2c1c(=O)n(Cc1nc3ccccc3c3ccccc13)c(=O)n2C [1(33), 1-[(phenanthridin-6-yl)methyl]-3-methyl-7-(2-butyn-1-yl)-8-((R)-3-amino-piperidin-1-yl)-xanthine]	4 nM	–	–
CC#CCn1c(N2CCCC(N)C2)nc2c1c(=O)n(Cc1nc3ncccc3c3ccccc13)c(=O)n2C (centres unmarked) [1(27), 1-[(benzo[c][1,8]naphthyridin-6-yl)methyl]-3-methyl-7-(2-butyn-1-yl)-8-(3-amino-piperidin-1-yl)-xanthine]	2 nM	–	–
CC#CCn1c(N2CCC[C@@H](N)C2)nc2c1c(=O)n(CC1=Nc3ccccc3Oc3ccccc31)c(=O)n2C [1(8), 1-[(dibenzo[b,f][1,4]oxazepin-11-yl)methyl]-3-methyl-7-(2-butyn-1-yl)-8-((R)-3-amino-piperidin-1-yl)-xanthine]	4 nM	–	–

From patent US7696212B2, “Xanthine derivatives, the preparation thereof and their use as pharmaceutical compositions” (Boehringer Ingelheim Pharma GmbH and Co. KG, priority 2002, dated 2010)
